From patent publication US5135943A, “1H-imidazole derivative compounds and pharmaceutical compositions containing the same” (priority 1984, dated 1992)
≈ marks a conversion by molar mass, not a printed value. Read-outs that look alike come from different tables or passages of the source.

Key:
Dermatophytes, Others = assay: MIC by two-fold dilution, other dermatophytes; assay type: cell-based; conditions: 3 strains; read-out: Minimum Inhibitory Concentration
Description: (§1) Minimum Inhibitory Concentrations (MICS) of Sertaconazole and Miconazole against 107 yeasts, 47 dermatophytes and 4 fungi were determined by a two-fold dilution method.

Trichophyton rubrum = assay: Randomized double blind clinical trials, Trichophyton rubrum infection; assay type: in vivo, human; conditions: 2 % cream (nitrate salts), 28 days treatment
Description: Human clinical trials were performed with Sertaconazole nitrate and Miconazole nitrate acid addition salts. Randomized double blind trials were carried out with 502 patients suffering from cutaneous mycosis as confirmed by microscopic examination and microbiological culture. 247 patients were treated with 2 % Sertaconazole cream and the remaining 255 patients were treated with 2 % Miconazole cream. All patients received scheduled treatment for 28 days and were followed up for an additional 28 days for possible relapses.

[1] = Prolonged subacute toxicity in rats; assay type: in vivo, rat; conditions: rat, in vivo, po
Description: In a study of prolonged subacute toxicity of Miconazole in rats, among other effects, significant hepatomegalias in females with a dosage of under 30 mg/kg p.o. and in males with a dosage of under 60 mg/kg p.o. were observed.

C. albicans 32 = assay: MIC, comparative in vitro testing against Martin compounds; assay type: cell-based; conditions: YNB medium
Description: (§2) Minimum Inhibitory Concentrations (MICS) of Sertaconazole were also measured in comparison to four of the compounds described in the Martin Patent, including a compound, referred to herein as Martin Compound 1, which has the same structure as Sertaconazole, expect that the sulfur in the benzothiophene ring is replaced by an oxygen.
(§3) The results of comparative in vitro testing of Sertaconazole and these four Martin compounds are shown in the following Table II against 16 microorganisms. The reading time is the time interval from the time of inoculation to the time of measurement.

C. guillermondii = assay: as above; assay type: cell-based
Description: as §2, §3

C. albicans ATCC E-10231 = assay: as above; assay type: cell-based; conditions: Casitone medium
Description: as §2, §3

C. tropicalis 25 = assay: as above; assay type: cell-based; conditions: YNB medium
Description: as §2, §3

C. albicans 15 = assay: as above; assay type: cell-based; conditions: Casitone medium
Description: as §2, §3

Candida albicans = assay: Vaginal infection by Candida albicans in female mice; assay type: in vivo; conditions: seven days after infection
From the text: Besides the above in vivo experiments vaginal infection by Candida albicans was studied in female mice. Standard methods were used. […] Similar results were found in experiments where repeated dosages of active compound were used after infection. These in vivo results confirmed the surprising speed of action of Sertaconazole in comparison to the prior art compounds.

16 microorganisms = assay: Geometric mean of all MIC measurements, comparative in vitro testing; assay type: cell-based; conditions: for MIC: read-out: Geometric means of MIC
Description: as §2, §3

[2] = Acute toxicity (LD50) in rat, three administration routes; conditions: in vivo, males
Description: (§4) Toxicity of Sertaconazole, Microazole and Martin's compounds 1, 2 and 3, as shown below, has been tested by standard methods. Both acute toxicity, subacute toxicity and chronic toxicity were studied
(§5) Oral, intraperitoneal and subcutaneous acute toxicity of sertaconazole and miconazole have been investigated. LD50 in mouse and rat, male and female, were measured.

Torulopsis glabrata = assay: MIC by two-fold dilution, Torulopsis glabrata; assay type: cell-based; conditions: Nakaseomyces glabratus; 10 strains; read-out: Minimum Inhibitory Concentration
Description: as §1

rats = assay: Chronic toxicity in rats; assay type: in vivo, rat; conditions: even at dosage levels of 300 mg/kg
Candida tropicalis = assay: MIC by two-fold dilution, Candida tropicalis; assay type: cell-based; conditions: 10 strains, read-out: Minimum Inhibitory Concentration
Description: as §1

[3] = tested on: Trichophyton menta-grophytes; assay: MIC by two-fold dilution, Trichophyton mentagrophytes; assay type: cell-based; conditions: 30 strains, read-out: Minimum Inhibitory Concentration
Description: as §1

[4] = Acute toxicity (LD50) in mouse, three administration routes; conditions: in vivo, males
From the text: A number of compounds with antimycotic and/or fungicidal properties, which are useful in pharmaceutical compositions, are currently known. These include the commercially successful Miconazole having the formula II [drawing 2] Miconazole has a structure chemically similar to the 1H-imidazole derivative compounds of the invention. Miconazole is effective against a number of yeasts, dermatophytes and fungi. This effectiveness can be measured by culturing these microorganisms in vitro and applying a preparation containing the antimycotic compound, Miconazole. The results of this type of in vitro experiment is expressed in terms of the Minimum Inhibitory Concentration (MIC), i.e. the minimum concentration which inhibits the growth of the microorganism. For example, the MIC for Miconazole against a particular Candida albicans strain is found to be 10.7 micrograms/milliliter. The effectiveness of Miconazole as an antimycotic compound is measured in vivo by applying a suspension containing the drug to the skin of a number of animals and measuring the proportion of animals on which growth of the microorganism is inhibited as a function of time. Typically, after 25 days, about 1/4 of the animals were cured, when treated with a cream containing 2 % by weight Miconazole. Of course, any pharmaceutical preparation for treating a disease in a human must satisfy certain toxicity requirements. […] Toxicity tests have been performed on the IH-imidazole derivative compounds of the invention and on Miconazole and other known compounds having antimycotic properties. In toxicity tests the LD50 (the dose at which 50 % mortality occurs) is measured.
as §4, §5

[5] = tested on: Scopulariopsis brevi-caulis; assay: MIC by two-fold dilution, Scopulariopsis brevicaulis; assay type: cell-based
Description: as §1

With `Clc1ccc(C(Cn2ccnc2)OCc2csc3c(Cl)cccc23)c(Cl)c1` (stereo not drawn) [Sertaconazole] the MIC (Dermatophytes, Others) was 2.5 µg/mL (≈ 5.71 µM), the “effectiveness against Trichophyton rubrum” value (Trichophyton rubrum) was 100% and the NOAEL [1] was at least 300 mg/kg. The MIC (C. albicans 32; Candida albicans, 32, reading time 48 h, SZ vs M2, read-out: MIC) was 4 µg/mL (≈ 9.14 µM), the MIC (C. albicans 32; Candida albicans, 32, reading time 60 h, SZ vs M1, read-out: MIC) was 8 µg/mL (≈ 18.3 µM) and the MIC (C. albicans 32; reading time 48 h, SZ vs M3) was 4 µg/mL (≈ 9.14 µM). The MIC (C. albicans 32; reading time 48 h, SZ vs M4) was 4 µg/mL (≈ 9.14 µM), the MIC (C. guillermondii; 48 h) was 0.125 µg/mL (≈ 0.286 µM) and the MIC (C. guillermondii; 48 h, Casitone medium, reading time 48 h, SZ vs M2, read-out: MIC) was 0.25 µg/mL (≈ 0.571 µM). For the same molecule, the MIC (C. guillermondii; 48 h, Casitone medium, reading time 48 h, SZ vs M3, read-out: MIC) was 0.25 µg/mL (≈ 0.571 µM), the MIC (C. guillermondii; 48 h, Casitone medium, reading time 48 h, SZ vs M4, read-out: MIC) was 0.25 µg/mL (≈ 0.571 µM) and the MIC (C. guillermondii; 48 h, YNB medium, reading time 48 h, SZ vs M2, read-out: MIC) was 0.25 µg/mL (≈ 0.571 µM). The MIC (C. guillermondii; 60 h, Casitone medium, reading time 60 h, SZ vs M1, read-out: MIC) was 0.5 µg/mL (≈ 1.14 µM), the MIC (C. guillermondii; 60 h, YNB medium, reading time 60 h, SZ vs M1, read-out: MIC) was 0.25 µg/mL (≈ 0.571 µM) and the MIC (C. guillermondii; YNB medium, reading time 48 h, SZ vs M4) was 0.125 µg/mL (≈ 0.286 µM). For the same molecule, the MIC (C. albicans ATCC E-10231; Candida albicans, ATCCE10231, reading time 48 h, SZ vs M2, read-out: MIC) was 0.5 µg/mL (≈ 1.14 µM), the MIC (C. albicans ATCC E-10231; Candida albicans, ATCCE10231, reading time 60 h, SZ vs M1, read-out: MIC) was 1 µg/mL (≈ 2.28 µM) and the MIC (C. albicans ATCC E-10231; reading time 48 h, SZ vs M3) was 0.5 µg/mL (≈ 1.14 µM). It also gave an MIC (C. albicans ATCC E-10231; reading time 48 h, SZ vs M4) of 0.5 µg/mL (≈ 1.14 µM), an MIC (C. tropicalis 25; Candida tropicalis, 25, 48 h, reading time 48 h, SZ vs M2) of 8 µg/mL (≈ 18.3 µM) and an MIC (C. tropicalis 25; Candida tropicalis, 25, 48 h, reading time 48 h, SZ vs M3) of 4 µg/mL (≈ 9.14 µM). The MIC (C. tropicalis 25; Candida tropicalis, 25, 48 h, reading time 48 h, SZ vs M4) was 4 µg/mL (≈ 9.14 µM), the MIC (C. tropicalis 25; Candida tropicalis, 25, 60 h, reading time 60 h, SZ vs M1) was 8 µg/mL (≈ 18.3 µM) and the MIC (C. albicans 15; Candida albicans, 15, 48 h, reading time 48 h, SZ vs M2) was 0.06 µg/mL (≈ 0.137 µM). For the same molecule, the MIC (C. albicans 15; Candida albicans, 15, 48 h, reading time 48 h, SZ vs M3) was 0.03 µg/mL (≈ 0.0685 µM), the MIC (C. albicans 15; Candida albicans, 15, 48 h, reading time 48 h, SZ vs M4) was 0.03 µg/mL (≈ 0.0685 µM) and the MIC (C. albicans 15; Candida albicans, 15, 60 h, reading time 60 h, SZ vs M1) was 0.5 µg/mL (≈ 1.14 µM). The animals healed (Candida albicans) was 75%, the MIC (16 microorganisms; 48 h, SZ vs M2, reading time 48 h) was 0.366 µg/mL (≈ 0.836 µM) and the MIC (16 microorganisms; 48 h, SZ vs M3, reading time 48 h) was 0.336 µg/mL (≈ 0.768 µM). For the same molecule, the MIC (16 microorganisms; 48 h, SZ vs M4, reading time 48 h) was 0.336 µg/mL (≈ 0.768 µM), the MIC (16 microorganisms; 60 h, SZ vs M1, reading time 60 h) was 0.876 µg/mL (≈ 2 µM) and the “Increase of Sertaconazole activity” value (16 microorganisms; relative to Martin Compound 1) was 24%. For the same molecule, the “Increase of Sertaconazole activity” value (16 microorganisms; relative to Martin Compound 2) was 54%, the “Increase of Sertaconazole activity” value (16 microorganisms; relative to Martin Compound 3) was 16% and the “Increase of Sertaconazole activity” value (16 microorganisms; relative to Martin Compound 4) was 54%. It also gave an LD50 ([2]; ip, intraperitoneal) of over 8000 mg/kg, an LD50 ([2]; oral) of over 8000 mg/kg and an LD50 ([2]; sc, subcutaneous) of over 8000 mg/kg. The MIC (Torulopsis glabrata) was 1.5 µg/mL (≈ 3.43 µM), the mortality (rats) was “no mortality was observed” and the MIC (Candida tropicalis) was 5.6 µg/mL (≈ 12.8 µM). The MIC [3] was 2.6 µg/mL (≈ 5.94 µM), the LD50 ([4]; ip, intraperitoneal) was over 8000 mg/kg and the LD50 ([4]; oral) was over 8000 mg/kg. For the same molecule, the LD50 ([4]; sc, subcutaneous) was over 8000 mg/kg, the MIC ([5]; Scopulariopsis, 4 strains, read-out: Minimum Inhibitory Concentration) was 8 µg/mL (≈ 18.3 µM) and the “increase of activity in comparison to Miconazole” value ([5]; in vitro) was 75%.
